From paper PMC9027599, “Secondary Metabolites in Basil, Bio-Insecticide, Inhibition Effect, and In Silico Molecular Docking against Proteolytic Enzymes of the Red Palm Weevil (Rhynchophorus ferrugineus)” (Plants, 2022)

Test system: cysteine protease
Test: Cysteine protease activity of midgut from larvae treated 24 h (in vivo)
Parameters: species or system Rhynchophorus ferrugineus
Settings: midgut of fourth instar larvae treated for 24 h
Protocol: The activity of cysteine proteinase was determined in the fourth midgut instar larval homogenate of R. ferrugineus using the substrate Z-Phe-Arg-MNA [1]. […] The reaction was centrifuged (at 5000 rpm, 6 min), then the absorbance was determined (at 520 nm). The activity of cysteine proteinase was measured using an ELISA quick plate reader at the OD520/60 min/mg of midgut protein. […]
As a control, an assay combination devoid of inhibitors was utilized. The absorbance of the enzymes was determined using an ELISA plate quick reader at various wavelengths. The percentage activity of the control enzyme for each inhibitor was evaluated for each enzyme. Protease activity was assayed in vivo in the R. ferrugineus fourth midgut larval instars, which were treated with 1, 10, 50, 100, 500, 1000, and 5000 mg/L of extracts or compounds, measured as described above. […]

## C[C@@H]1O[C@@H](OC[C@H]2O[C@@H](Oc3c(-c4ccc(O)c(O)c4)oc4cc(O)cc(O)c4c3=O)[C@H](O)[C@@H](O)[C@@H]2O)[C@H](O)[C@H](O)[C@H]1O [Quercetin-3-O-rutinoside]
  IC50 against cysteine protease (in vivo): 746.6 µg/mL
